Results published in patent publication US20170129903A1, “COMPOUNDS COMPRISING 1,1a,2,5a-TETRAHYDROSPIRO[INDOLE-3,2a-PYRROLE]-2,5a-DIONE SYSTEM AS INHIBITORS P53-MDM2 PROTEIN-PROTEIN INTERACTION” (ADAMED SP. Z O.O., priority 2014, published 2017).

Target: T1, p53-Mdm2 interaction (N-terminal domain of Mdm2 protein, amino acids 1-111) (Homo sapiens, UniProt Q00987)
T1 construct: N-terminal domain of Mdm2 protein (amino acids 1-111)
Assay: Fluorescence polarization (FP) binding assay of p53-Mdm2 interaction
Conditions: FP assay, 130 nM Mdm2, FAM-labelled p53 peptide; Ki transformed from IC50 using Kenakin equation
Protocol: The inhibition of p53-Mdm2 interaction was measured using a fluorescence polarization (FP) binding assay. FP measures the rotational movement of molecules in a homogenous suspension. For this assay, N-terminal domain of Mdm2 protein (amino acids 1-111) is combined with a fluorescein-labelled (FAM) peptide derived from p53 trans-activation domain. Upon excitation of the fluorescent ligand with linearly polarized light, […]. If the peptide is bound by Mdm2, rotation will slow down and the perpendicular component will decrease. Disruption of the formation of the peptide-Mdm2 complex due to an inhibitor molecule binding to the p53 binding site of Mdm2 results in faster rotation of the peptide.
Fluorescence polarization experiments were read on Tecan Infinite M1000 reader with the 470 nm excitation and 520 nm emission filters for fluorescein. The fluorescence polarization was measured in black 96-well plates (Corning, CLS3991) in room temperature. Purity of Mdm2 was controlled at >95%. Reaction buffer was optimized by adding 5 mM DTT and 0.1% zwitterionic detergent CHAPS to reduce effect of nonspecific interactions.
The test was performed by combining successive dilution of compounds diluted in dimethyl sulfoxide (DMSO, 5% final concentration) with 130 nM Mdm2 in reaction buffer (PBS, 0.1% CHAPS, 5 mM DTT (dithiothreitol)). After 15 minutes of incubation in room temperature […] FAM-labelled peptide was added. Final reading was performed after 90 minutes of incubation. Dose-dependent binding curves and IC50 values were calculated using GraphPad Prism5 and next transformed to Ki values using Kenakin equation.

T1 sequence (Q00987 1-111): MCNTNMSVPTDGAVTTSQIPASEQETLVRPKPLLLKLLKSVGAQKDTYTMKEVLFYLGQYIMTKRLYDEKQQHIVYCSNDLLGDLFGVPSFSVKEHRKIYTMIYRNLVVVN

SMILES	Ki
O=C1C(O)=C(c2ccccc2)C2(C(=O)Nc3cc(F)ccc32)N1c1cccc(Cl)c1 (stereo not drawn) [Compound 42, 1′-(3-chlorophenyl)-6-fluoro-4′-hydroxy-3′-phenyl-1,1′,2,5′-tetrahydrospiro[indole-3,2′-pyrrole]-2,5′-dione]	90 nM
CC(C)(C)CN1C(=O)C(O)=C(c2cccc(Cl)c2)C12C(=O)Nc1cc(Cl)ccc12 (stereo not drawn) [Compound 36, 6-chloro-3′-(3-chlorophenyl)-1′-(2,2-dimethylpropyl)-4′-hydroxy-1,1′,2,5′-tetrahydrospiro[indole-3,2′-pyrrole]-2,5′-dione]	295 nM
CC1(C(=O)C2=C(O)C(=O)N(c3cccc(Cl)c3)C23C(=O)Nc2cc(Cl)ccc23)CC1 (stereo not drawn) [Compound 5, 6-chloro-1′-(3-chlorophenyl)-4′-hydroxy-3′-(1-methylcyclopropanecarbonyl)-1,1′,2,5′-tetrahydrospiro[indole-3,2′-pyrrole]-2,5′-dione]	194 nM
Cc1ccc(Cl)cc1N1C(=O)C(O)=C(C(=O)C2(C)CC2)C12C(=O)Nc1cc(Cl)ccc12 (stereo not drawn) [Compound 2, 6-chloro-1′-(5-chloro-2-methylphenyl)-4′-hydroxy-3′-(1-methylcyclopropane-carbonyl)-1,1′,2,5′-tetrahydrospiro[indole-3,2′-pyrrole]-2,5′-dione]	122 nM
COc1ccc(Cl)cc1N1C(=O)C(O)=C(C(=O)C(C)C)C12C(=O)Nc1cc(Cl)ccc12 (stereo not drawn) [Compound 10, 6-chloro-1′-(5-chloro-2-methoxyphenyl)-4′-hydroxy-3′-(iso-propanoyl)-1,1′,2,5′-tetrahydrospiro[indole-3,2′-pyrrole]-2,5′-dione]	610 nM
CCOC(=O)CNC1=C(C(=O)C2(C)CC2)C2(C(=O)Nc3cc(Cl)ccc32)N(c2cccc(Cl)c2)C1=O (stereo not drawn) [Compound 15, ethyl 2-{[6-chloro-1′-(3-chlorophenyl)-3′-(1-methylcyclopropanecarbonyl)-2,5′-dioxo-1,1′,2,5′-tetrahydrospiro[indole-3,2′-pyrrole]-4′-yl]amino}acetate]	349 nM
COc1ccccc1-n1cc2c(c1C(C)C)C1(C(=O)Nc3cc(Cl)ccc31)N(c1cc(Cl)ccc1N)C2=O (stereo not drawn) [Compound 91, 2′-(2-amino-5-chlorophenyl)-6-chloro-5′-(2-methoxyphenyl)-6′-(propan-2-yl)-1,2,3′,5′-tetrahydro-2′H-spiro[indole-3,1′-pyrrolo[3,4-c]pyrrole]-2,3′-dione]	4.5 nM
CC(C)OCC(C)(C)C(=O)C1=C(O)C(=O)N(c2cccc(Cl)c2)C12C(=O)Nc1cc(Cl)ccc12 (stereo not drawn) [Compound 13, 6-chloro-1′-(3-chlorophenyl)-3′-[2,2-dimethyl-3-(propan-2-yloxy)propanoyl]-4′-hydroxy-1,1′,2,5′-tetrahydrospiro[indole-3,2′-pyrrole]-2,5′-dione]	196 nM
CC1(C(=O)C2=C(O)C(=O)N(c3cc(Cl)ccc3F)C23C(=O)Nc2cc(Cl)ccc23)CC1 (stereo not drawn) [Compound 1, 6-chloro-1′-(5-chloro-2-fluorophenyl)-4′-hydroxy-3′-(1-methylcyclopropane-carbonyl)-1,1′,2,5′-tetrahydrospiro[indole-3,2′-pyrrole]-2,5′-dione]	354 nM
CC(C)(C)C(=O)C1=C(O)C(=O)N(c2cccc(Cl)c2)C12C(=O)Nc1cc(Cl)ccc12 (stereo not drawn) [Compound 6, 6-chloro-1′-(3-chlorophenyl)-3′-(2,2-tert-butanoyl)-4′-hydroxy-1,1′,2,5′-tetrahydrospiro[indole-3,2′-pyrrole]-2,5′-dione]	102 nM
Cc1ccc(Cl)cc1N1C(=O)C(O)=C(C(=O)C(C)C)C12C(=O)Nc1cc(Cl)ccc12 (stereo not drawn) [Compound 8, 6-chloro-1′-(5-chloro-2-methylphenyl)-4′-hydroxy-3′-(iso-propanoyl)-1,1′,2,5′-tetrahydrospiro[indole-3,2′-pyrrole]-2,5′-dione]	120 nM
O=C1C(O)=C(Sc2ccc(Cl)cc2)C2(C(=O)Nc3cc(Cl)ccc32)N1c1cccc(Cl)c1 (stereo not drawn) [Compound 54, 6-chloro-1′-(3-chlorophenyl)-3′-[(4-chlorophenyl)sulfanyl]-4′-hydroxy-1,1′,2,5′-tetrahydrospiro[indole-3,2′-pyrrole]-2,5′-dione]	123 nM

The remaining lines, values ahead:

Ki	SMILES
130 nM	O=C(O)CSC1=C(c2ccccc2)C2(C(=O)Nc3cc(Cl)ccc32)N(c2cccc(Cl)c2)C1=O (stereo not drawn) [Compound 51, 2-[6-chloro-1′-(3-chlorophenyl)-2,5′-dioxo-3′-phenyl-1,1′,2,5′-tetrahydrospiro [indole-3,2′-pyrrole]-4′-ylsulfanyl]acetic acid]
152 nM	CC(C)c1[nH]nc2c1C1(C(=O)Nc3cc(Cl)ccc31)N(c1cncc(Cl)c1)C2=O (stereo not drawn) [Compound 83, 6-chloro-5′-(5-chloropyridin-3-yl)-3′-(propan-2-yl)-1,2,5′,6′-tetrahydro-2′H-spiro [indole-3,4′-pyrrolo[3,4-c]pyrazole]-2,6′-dione]
79 nM	CCC(C)SC1=C(O)C(=O)N(c2cccc(Cl)c2)C12C(=O)Nc1cc(Cl)ccc12 (stereo not drawn) [Compound 57, 3′-(butan-2-ylsulfanyl)-6-chloro-1′-(3-chlorophenyl)-4′-hydroxy-1,1′,2,5′-tetrahydrospiro[indole-3,2′-pyrrole]-2,5′-dione]
425 nM	CC(C)c1[nH]nc2c1C1(C(=O)Nc3cc(Cl)ccc31)N(c1cc(Cl)ccn1)C2=O (stereo not drawn) [Compound 82, 6-chloro-5′-(4-chloropyridin-2-yl)-3′-(propan-2-yl)-1,2,5′,6′-tetrahydro-2′H-spiro [indole-3,4′-pyrrolo[3,4-c]pyrazole]-2,6′-dione]
2.4 nM	COc1ccccc1-n1nc2c(c1C(C)C)C1(C(=O)Nc3cc(Cl)ccc31)N(c1cc(Cl)c(=O)n(C)c1)C2=O (stereo not drawn) [Compound 63, 6-chloro-5′-(5-chloro-1-methyl-6-oxo-1,6-dihydropyridin-3-yl)-2′-(2-methoxy-phenyl)-3′-(propan-2-yl)-1,2,5′,6′-tetrahydro-2′H-spiro[indole-3,4′-pyrrolo [3,4-c]pyrazole]-2,6′-dione]
5.3 nM	COc1ccccc1-n1cc2c(c1C(C)C)C1(C(=O)Nc3cc(Cl)ccc31)N(c1cccc(Cl)c1)C2=O (stereo not drawn) [Compound 89, 6-chloro-2′-(3-chlorophenyl)-5′-(2-methoxyphenyl)-6′-(propan-2-yl)-1,2,3′,5′-tetrahydro-2′H-spiro[indole-3,1′-pyrrolo [3,4-c]pyrrole]-2,3′-dione]
190 nM	O=C1C(O)=C(c2cccc(Cl)c2)C2(C(=O)Nc3cc(Cl)ccc32)N1c1ccccc1 (stereo not drawn) [Compound 37, 6-chloro-3′-(3-chlorophenyl)-4′-hydroxy-1′-phenyl-1,1′,2,5′-tetrahydrospiro[indole-3,2′-pyrrole]-2,5′-dione]
550 nM	O=C1C(O)=C(c2ccccc2)C2(C(=O)Nc3ccc(Cl)cc32)N1c1cccc(Cl)c1 (stereo not drawn) [Compound 38, 5-chloro-1′-(3-chlorophenyl)-4′-hydroxy-3′-phenyl-1,1′,2,5′-tetrahydrospiro[indole-3,2′-pyrrole]-2,5′-dione]
1910 nM	O=C1C(O)=C(Sc2ccc(Cl)cc2)[C@]2(C(=O)Nc3cc(Cl)ccc32)N1c1cccc(Cl)c1 [Compound 55, (3S)-6-chloro-1′-(3-chlorophenyl)-3′-[(4-chlorophenyl)sulfanyl]-4′-hydroxy-1,1′,2,5′-tetrahydrospiro[indole-3,2′-pyrrole]-2,5′-dione]
38 nM	O=C(O)CNC1=C(c2ccccc2)C2(C(=O)Nc3cc(Cl)ccc32)N(c2cccc(Cl)c2)C1=O (stereo not drawn) [Compound 49, 2-{[6-chloro-1′-(3-chlorophenyl)-2,5′-dioxo-3′-phenyl-1,1′,2,5′-tetrahydrospiro [indole-3,2′-pyrrole]-4′-yl]amino}acetic acid]
51 nM	O=C(C1=C(O)C(=O)N(c2cccc(Cl)c2)C12C(=O)Nc1cc(Cl)ccc12)c1ccccc1 (stereo not drawn) [Compound 3, 3′-benzoyl-6-chloro-1′-(3-chlorophenyl)-4′-hydroxy-1,1′,2,5′-tetrahydrospiro[indole-3,2′-pyrrole]-2,5′-dione]
57 nM	CCOC(=O)/C=C/C(=O)Nc1cccc(C(=O)C2=C(O)C(=O)N(c3cccc(Cl)c3)C23C(=O)Nc2cc(Cl)ccc23)c1 (stereo not drawn) [Compound 17, ethyl (2E)-3-[(3-{[6-chloro-1′-(3-chloro-phenyl)-4′-hydroxy-2,5′-dioxo-1,1′,2,5′-tetrahydrospiro[indole-3,2′-pyrrole]-3′-yl]carbonyl}phenyl)carbamoyl]prop-2-enoate]
3.6 nM	COc1ccc(C(=O)O)cc1-n1nc2c(c1C(C)C)C1(C(=O)Nc3cc(Cl)ccc31)N(c1cc(Cl)ccc1O)C2=O (stereo not drawn) [Compound 76, 3-[6-chloro-5′-(5-chloro-2-hydroxy-phenyl)-2,6′-dioxo-3′-(propan-2-yl)-1,2,5′,6′-tetrahydro-2′H-spiro[indole-3,4′-pyrrolo[3,4-c]pyrazole]-2′-yl]-4-methoxybenzoic acid]
82 nM	CC(C)(C)SC1=C(O)C(=O)N(c2cccc(Cl)c2)C12C(=O)Nc1cc(Cl)ccc12 (stereo not drawn) [Compound 58, 3′-(tert-butylsulfanyl)-6-chloro-1′-(3-chlorophenyl)-4′-hydroxy-1,1′,2,5′-tetrahydrospiro[indole-3,2′-pyrrole]-2,5′-dione]

Same assay, conditions: G=S

times less potent than Compound 56 (enantiomer)	SMILES
about 19 times	O=C1C(O)=C(Sc2ccc(Cl)cc2)[C@]2(C(=O)Nc3cc(Cl)ccc32)N1c1cccc(Cl)c1 [Compound 55, (3S)-6-chloro-1′-(3-chlorophenyl)-3′-[(4-chlorophenyl)sulfanyl]-4′-hydroxy-1,1′,2,5′-tetrahydrospiro[indole-3,2′-pyrrole]-2,5′-dione]
